Results on one compound are retold here after patent publication US20090105349A1, “ANDROGEN MODULATORS” (WARNER-LAMBERT COMPANY LLC, priority 2004, published 2009).

A value given as a limit tells only on which side of the number the result lay.

For assay [1], the target named is T1, androgen receptor in MDA-MB453-MMTV clone 54-19 cells (Homo sapiens, UniProt P10275).
T1 sequence (P10275 1-920 Q868H): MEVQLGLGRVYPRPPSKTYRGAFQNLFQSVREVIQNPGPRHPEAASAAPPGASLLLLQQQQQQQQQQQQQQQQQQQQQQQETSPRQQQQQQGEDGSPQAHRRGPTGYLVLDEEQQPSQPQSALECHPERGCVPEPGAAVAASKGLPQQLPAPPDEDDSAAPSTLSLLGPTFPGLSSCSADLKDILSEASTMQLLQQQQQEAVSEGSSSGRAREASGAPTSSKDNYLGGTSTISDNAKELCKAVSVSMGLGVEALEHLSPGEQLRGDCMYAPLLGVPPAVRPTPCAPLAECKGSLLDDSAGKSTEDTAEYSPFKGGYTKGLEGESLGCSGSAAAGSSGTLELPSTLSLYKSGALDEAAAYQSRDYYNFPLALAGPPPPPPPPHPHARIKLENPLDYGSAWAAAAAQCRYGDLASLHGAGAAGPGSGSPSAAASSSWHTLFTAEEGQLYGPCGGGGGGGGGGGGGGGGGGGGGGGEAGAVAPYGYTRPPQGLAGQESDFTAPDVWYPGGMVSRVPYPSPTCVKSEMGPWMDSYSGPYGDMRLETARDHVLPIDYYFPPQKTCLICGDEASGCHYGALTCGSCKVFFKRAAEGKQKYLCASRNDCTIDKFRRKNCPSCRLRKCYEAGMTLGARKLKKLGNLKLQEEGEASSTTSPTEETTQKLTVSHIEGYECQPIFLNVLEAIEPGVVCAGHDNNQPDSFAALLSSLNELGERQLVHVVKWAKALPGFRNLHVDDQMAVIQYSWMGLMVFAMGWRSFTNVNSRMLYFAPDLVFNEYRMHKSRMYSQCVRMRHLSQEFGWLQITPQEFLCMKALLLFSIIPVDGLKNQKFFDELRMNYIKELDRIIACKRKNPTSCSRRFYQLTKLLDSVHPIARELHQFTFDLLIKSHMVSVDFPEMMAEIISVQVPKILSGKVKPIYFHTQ
Put plainly: AR antagonist cell assay (MMTV-luciferase reporter). The assay is classed as cell-based. The following applies: read-out: AR Cell IC50; MDA-MB453-MMTV clone 54-19, inhibition of DHT induced luciferase, 17 hr; mean of multiple tests. In general terms: Reporter assays use an easily measured gene product as a stand-in for the process of interest.

Assay [2] deals with male C3H/HeN mice (telogen to anagen conversion). The assay is classed as in vivo. As to conditions: mouse, in vivo. The source says: While this model is a significant improvement over the telogen conversion assay as a model for human baldness, it suffers from a number of practical disadvantages. The macaques are expensive, relatively rare, labor intensive to maintain, and require long wash out periods between testing. […] Thus, the model relates to a modification of the existing telogen conversion assay. Male C3H/HeN mice approximately 7 weeks old are utilized. These animals are also uniformly in telogen, like their female counterparts. However, once shaven, the androgens inherently present in these male mice inhibit the conversion of the hair follicles to the anagen phase. An anti-androgen will block this androgenic effect and the follicles will convert to anagen, like their female counterparts.
The compounds shown below in Table IV were submitted for further testing utilizing the modified telogen conversion assay, described above. The testing was carried out in the following manner.
Male C3H/HeN mice, 6 to 7 weeks old (Charles River Laboratories, Raleigh, N.C.) were used for the study. Fur was clipped from the dorsal region of the mice prior to initiation of the study. Only mice with pink skin, a visual indication of the telogen phase, were selected for inclusion in the study.
A second group of animals received only the vehicle to serve as a control. Treatments were applied twice daily for 4 weeks.
The hair growth response was quantified by recording, for each animal, the day on which signs of hair growth first appeared over the treated area. The first sign of anagen was the darkening of skin color as melanocytes in the follicles started to synthesize melanin in preparation for the production of pigmented hairs. […] The day on which anagen was initiated in 50% of the test animals for both the treatment group and the vehicle group is reported below in Table IV.

One may read the IC50 as the concentration that gives 50% inhibition. Turning to `CSc1ccccc1Oc1ccc(C#N)cc1Cl` [Example 5, 3-Chloro-4-(2-methylsulfanyl-phenoxy)-benzonitrile], the IC50 in assay [1] was determined as 48 nM. For the same compound, the “Anagen-Trx (day on which anagen was initiated in 50% of the test animals)” value in assay [2] is above 35 days.
